Structures are written as SMILES. “And” between values parts separate entries of the source, which are not always exact repeats. Identical values can stand only once.

What is called IC50 is the point on the concentration scale where inhibition reaches its midpoint. Low values mean inhibition by little substance, high ones a need for much substance.

The target of the assay is Maternal embryonic leucine zipper kinase (Homo sapiens, UniProt Q14680). Briefly: Kinase Assay: MELK activity was determined in the presence or absence of compounds using fluorescein isothiocyanate-labeled (FITC-labeled) histone H3 peptide as a substrate. The extent of FITC-labeled histone H3 peptide phosphorylation was measured by immobilized metal ion affinity-based fluorescence polarization (IMAP) technology (Sportsman J R, et al., Assay Drug Dev. Technol. 2: 205-14, 2004) using IMAP FP Progressive Binding System (Molecular Devices Corporation). Test compounds were dissolved in DMSO at 12.5 mM and then serially diluted as the DMSO concentration in the assays to be 1%. The serially diluted compounds, 0.8 ng/micro-L PBK (Carna Biosciences) and 100 nM FITC-labeled histone H3 peptide were reacted in a reaction buffer (20 mM HEPES, 0.01% Tween-20, 0.3 mM MgCl2, 2 mM dithiothreitol, 50 micro-M ATP, pH 7.4) at room temperature for 1 hour. The reaction was stopped by the addition of three fold assay volume of progressive binding solution. Following 0.5 hour incubation at room temperature. On the technique in general: Fluorescence polarisation rises when a labelled molecule tumbles more slowly, as on binding a larger partner.
Chain of Maternal embryonic leucine zipper kinase (Q14680 whole entry): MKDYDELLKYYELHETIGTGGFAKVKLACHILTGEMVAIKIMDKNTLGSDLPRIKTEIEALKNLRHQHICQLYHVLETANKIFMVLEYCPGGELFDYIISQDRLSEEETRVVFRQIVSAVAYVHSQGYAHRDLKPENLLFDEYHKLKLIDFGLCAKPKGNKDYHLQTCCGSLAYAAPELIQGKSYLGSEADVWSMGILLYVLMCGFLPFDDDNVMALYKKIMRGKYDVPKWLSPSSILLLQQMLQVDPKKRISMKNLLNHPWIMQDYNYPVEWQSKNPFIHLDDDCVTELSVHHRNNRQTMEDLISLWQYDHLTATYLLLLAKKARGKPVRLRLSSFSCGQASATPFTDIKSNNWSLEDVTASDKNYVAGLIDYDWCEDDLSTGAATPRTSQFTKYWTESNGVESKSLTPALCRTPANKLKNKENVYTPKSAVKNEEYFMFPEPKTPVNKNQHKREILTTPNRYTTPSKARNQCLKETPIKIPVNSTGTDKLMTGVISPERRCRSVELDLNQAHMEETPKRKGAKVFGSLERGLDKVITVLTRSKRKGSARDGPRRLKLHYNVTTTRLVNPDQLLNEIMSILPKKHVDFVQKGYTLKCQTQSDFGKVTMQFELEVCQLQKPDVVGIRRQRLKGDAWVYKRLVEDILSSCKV
Regarding `CN(C)C1CCN(C[C@H]2CC[C@H](Nc3c(C(=O)C4CC4)cnc4ccc(-c5cc(Cl)c(O)c(Cl)c5)cc34)CC2)C1` (stereo partly drawn), the IC50 amounted to 3 nM. For the molecule `O=C(c1cnc2ccc(-c3cc(Cl)c(O)c(Cl)c3)cc2c1N[C@H]1CC[C@H](CN2CCCC2)CC1)C1CC1`, the IC50 stood at 1.4 nM. The same measure for `O=C(c1cnc2ccc(-c3cc(Cl)c(O)c(Cl)c3)cc2c1Nc1ccc(CN2CCOCC2)cc1)C1CC1`: 20 nM; for `CC(=O)c1cnc2ccc(-c3cc(Cl)c(O)c(Cl)c3)cc2c1N[C@H]1CC[C@H](CN(C)C)CC1`: 3.1 nM; for `CN(C)C1CCN(Cc2ccc(Nc3c(C(=O)C4CC4)cnc4ccc(-c5cc(Cl)c(O)c(Cl)c5)cc34)cc2)C1` (stereo not drawn): 7.2 nM and 5.6 nM. The same measure for `CCN(CC)CCO[C@H]1CC[C@H](Nc2c(C(C)=O)cnc3ccc(-c4cc(Cl)c(O)c(Cl)c4)cc23)CC1`: 2.9 nM; for `CN1CCN(C[C@H]2CC[C@H](Nc3c(C(=O)C4CC4)cnc4ccc(-c5cc(Cl)c(O)c(Cl)c5)cc34)CC2)CC1`: 4.2 nM and 2.8 nM. The same measure for `CN(C)CC1CCN(c2c(C(=O)C3CC3)cnc3ccc(-c4ccc(OC(F)F)cc4)cc23)CC1`: 630 nM.

In turn, `CS(=O)(=O)c1cnc2ccc(-c3cc(Cl)c(O)c(Cl)c3)cc2c1Nc1cccc(CCN2CCCC2)c1` came in with an IC50 of 2 nM. Compared with the last molecule, the IC50 is about 320-fold lower. To `CC(=O)c1cnc2ccc(-c3cc(Cl)c(O)c(Cl)c3)cc2c1N[C@H]1CC[C@H](NC(=O)[C@@H](N)C(C)(C)C)CC1` belongs 4.2 nM. To `CN(C)CC1CCN(c2c(C(=O)C3CC3)cnc3ccc(-c4ccc5c(c4)CC(=O)N5)cc23)CC1` belongs 660 nM; to `Cc1cc(O)c(Cl)cc1-c1ccc2ncc(C(=O)C3CC3)c(N3CCC(CN(C)C)CC3)c2c1`, 60 nM; to `CN(C)C[C@H]1CC[C@H](Nc2c(C(=O)C(C)(C)C)cnc3ccc(-c4cc(Cl)c(O)c(Cl)c4)cc23)CC1`, 22 nM. The same measure for `CC(=O)c1cnc2ccc(-c3cc(Cl)c(O)c(Cl)c3)cc2c1Nc1ccc(S(=O)(=O)N2CCN(C)CC2)cc1`: 36 nM; for `CC(=O)c1cnc2cc(C)c(-c3cc(Cl)c(O)c(Cl)c3)cc2c1N[C@H]1CC[C@H](CN2CCC(N)C2)CC1` (stereo partly drawn): 55 nM; for `CC(=O)c1cnc2ccc(-c3cc(Cl)c(O)c(Cl)c3)cc2c1N[C@H]1CCC[C@@H](CN2CCN(C)CC2)C1`: 2.7 nM.

`CC(N)C(=O)N[C@H]1CC[C@H](Nc2c(C(=O)C(C)(C)C)cnc3ccc(-c4cc(Cl)c(O)c(Cl)c4)cc23)CC1` (stereo partly drawn) showed an IC50 of 15 nM. The same measure for `N#Cc1ncc(-c2ccc3ncc(C(=O)C4CC4)c(Nc4ccc(CN)cc4)c3c2)cn1`: 1.3 nM.

The molecule `CN(C)C[C@H]1CC[C@H](Nc2c(C(=O)C3CCCC3)cnc3ccc(-c4cc(Cl)c(O)c(Cl)c4)cc23)CC1` came in with an IC50 of 3 nM. Compared with the last molecule, the IC50 is about 2.3-fold higher. The same measure for `O=C(c1cnc2ccc(-c3cc(Cl)c(O)c(Cl)c3)cc2c1Nc1cccc(CCN2CCCC2)c1)C1CCCC1`: 9.6 nM.

For `CS(=O)(=O)c1cnc2ccc(-c3cc(Cl)c(O)c(Cl)c3)cc2c1N[C@H]1CC[C@H](CN2CCCC2)CC1`, the IC50 was 2.7 nM. The same measure for `CN(C)C1CCN(c2ccc(Nc3c(S(C)(=O)=O)cnc4ccc(-c5cc(Cl)c(O)c(Cl)c5)cc34)cn2)C1` (stereo not drawn): 2.4 nM; for `O=C(c1cnc2ccc(-c3cc(Cl)c(O)c(Cl)c3)cc2c1N1CCC(CCN2CCCC2)CC1)C1CC1`: 2.3 nM. `COc1cc(-c2ccc3ncc(C(=O)C4CC4)c(Nc4ccc(C5CCCN5C)cn4)c3c2)cc(Cl)c1O` (stereo not drawn) showed a half-inhibitory concentration (IC50) of 36 nM.

The molecule `CN(C)Cc1ccc(Nc2c([S+](C)[O-])cnc3ccc(-c4cc(Cl)c(O)c(Cl)c4)cc23)cc1` (stereo not drawn) returned a half-maximal inhibitory concentration (IC50) of 8.2 nM. The same measure for `CC(=O)c1cnc2ccc(-c3cc(Cl)c(O)c(Cl)c3)cc2c1N[C@H]1CC[C@H](CN2CCN(C)CC2)CC1`: 5.5 nM. For `CC(=O)c1cnc2ccc(-c3cnc(C#N)nc3)cc2c1Nc1ccc(CN(C)C)cc1`, the IC50 was determined as 2.2 nM. This IC50 is about 2.5-fold lower than that of the molecule before.

Molecule `COc1cc(-c2ccc3ncc(C#N)c(N[C@H]4CC[C@H](N(C)C)CC4)c3c2)cc(Cl)c1O` had an IC50 of 1.8 nM.

For the origin of these results see ChEMBL document CHEMBL3638691, “Quinoline derivatives and MELK inhibitors containing the same” (2015).
